Measurements reported in article PMC4604100, “Melanocortin agonists stimulate lipolysis in human adipose tissue explants but not in adipocytes” (BMC Research Notes, 2015).
“Also recorded” adds a separate entry of the source. Where no end group is shown, it is not given here.

Tests used:
[1] = system: human subcutaneous adipocytes; assay: NEFA release in differentiated human subcutaneous adipocytes; assay type: cell-based; conditions: for stimulation of NEFA release (in words): human subcutaneous adipocytes (ZenBio, obese males), 1 pM–10 μM, n = 4
Method: (§1) Induction of NEFA and glycerol release in adipocytes and intact adipose tissue explants was used as a measure of lipolysis with β-adrenergic agonist isoproterenol as a positive control as previously described. When using propranolol, 10 μM was used as final concentration. 250 mg of human adipose tissue was placed in 15 mL tubes, immediately covered with 2.5 mL of preheated (37 °C) hyclone media and preincubated for 24 h. After 24 h, the media was replenished and explants were stimulated with the indicated melanocortin peptide for 3 h before harvesting the supernatant for NEFA and glycerol analysis. In house testing has shown no indications of hypoxia when stimulating explants (data not shown). All test compounds were dissolved to 4 mM in DMSO (highest DMSO concentration of 0.25 % in the assay) and diluted in DPBS buffer + 2 % bovine serum albumin (BSA). Human subcutaneous adipocytes purchased from Zenbio Inc., were used in stimulation of lipolysis (n = 4). These adipocytes have been isolated from obese males. When receiving the cells (and partially during transportation), the cells was differentiated from a pre-state to a mature state before the cells are used for experiments. The cells were handled according to the description from ZenBio Inc. Two hours was chosen as the optimal incubation time span for primary adipocytes, based on similar experiments in other species. […] Measures of melanocortin-stimulated glycerol release were added in explant lipolysis studies.
(§2) Data from the NEFA and the glycerol assay were obtained using the protocol supplied by the manufactures. Released NEFAs were analyzed in Graphpad Prism and one-tailed t test was used to calculate statistical significance between 2 groups (*p < 0.05, **p < 0.01, ***p < 0.001, no * indicates insignificance). Ki values in bindings studies were calculated as Ki = IC50/1 + [radioligand]/Kd. Data from binding studies was analyzed in Graphpad Prism.

[2] = system: human MCRs; assay: Binding rank order across human MCRs; conditions: order of affinity
Method: (§3) The human MC1R, MC3R, MC4R and MC5R were cloned by PCR and subcloned into the pcDNA3 expression vector, as previously described by Conde-Frieboes et al.. Cells stably expressing the human MCRs were generated by transfecting the expression vector into BHK570 cells (ATTC) and using 1 mg/mL G418 to select for stable clones. The stable cell lines were cultured in DMEM with glutamax, 10 % FCS, 1 % pen/strep, and 1 mg/mL G418 at 37 °C and 5 % CO2. […] Test compounds were dissolved to a 4 mM concentration in DMSO and diluted in a receptor specific binding buffer. […] A filtration system was employed to separate bound from unbound radioligand.
(§4) Data analysis and statistics

[3] = system: MC4R over MC1R; conditions: factor; ref [46] Greenfield et al.; cited from earlier work
[4] = system: MC4R over MC3R; conditions: factor; ref [46] Greenfield et al.; cited from earlier work
[5] = system: intact human white adipose tissue explants; assay: Glycerol release in human WAT explants (lipolysis); assay type: cell-based; conditions: subcutaneous explants from non-obese females, 100 nM–10 μM, 3 h; mean of 2 independent experiments in triplicate wells
Method: (§5) Adipose tissue biopsies used for stimulation of lipolysis were taken from the subcutaneous abdominal region by needle aspiration as previously described. The experimental group consisted of 6 non-diabetic females with a normal/preobese BMI (average BMI = 25.5). All biopsies were transported in sterile containers to the laboratory within 30 min after removal. The biopsies were washed repeatedly with isotonic saline and were used for subsequent culture.
Induction of NEFA and glycerol release in adipocytes and intact adipose tissue explants was used as a measure of lipolysis with β-adrenergic agonist isoproterenol as a positive control as previously described. When using propranolol, 10 μM was used as final concentration. 250 mg of human adipose tissue was placed in 15 mL tubes, immediately covered with 2.5 mL of preheated (37 °C) hyclone media and preincubated for 24 h. After 24 h, the media was replenished and explants were stimulated with the indicated melanocortin peptide for 3 h before harvesting the supernatant for NEFA and glycerol analysis. In house testing has shown no indications of hypoxia when stimulating explants (data not shown). All test compounds were dissolved to 4 mM in DMSO (highest DMSO concentration of 0.25 % in the assay) and diluted in DPBS buffer + 2 % bovine serum albumin (BSA). Human subcutaneous adipocytes purchased from Zenbio Inc., were used in stimulation of lipolysis (n = 4). These adipocytes have been isolated from obese males. When receiving the cells (and partially during transportation), the cells was differentiated from a pre-state to a mature state before the cells are used for experiments. […]
as §2

[6] = system: intact human white adipose tissue explants; assay: NEFA release in human WAT explants (lipolysis); assay type: cell-based; conditions: for increase in NEFA release compared to vehicle: 100 nM, 3 h stimulation, mean of 6 (α-MSH 3) independent experiments in triplicate wells; for increase in NEFA release compared to vehicle / stimulation of NEFA release / lipolysis (in words): subcutaneous explants from non-obese females; for Emax of lipolysis compared to isoproterenol (in words): intact human WAT explants; for stimulation of NEFA release / lipolysis (in words): 100 nM–10 μM, 3 h, one-tailed t test vs. vehicle
Method: as §5, §1, §2

[7] = system: mesenchymal stem cell-derived adipocytes; conditions: ref [52] Hoch et al.; cited from earlier work
Text: (§6) The lack of lipolytic response seen in adipocytes is supported by previous studies by Hoch et al. [[5 ...

[8] = system: mesenchymal stem cell-derived adipocytes; intact adipose tissue explants; conditions: mesenchymal stem cell-derived adipocytes or intact adipose tissue explants; ref [52] Hoch et al.; cited from earlier work
Text: as §6

[9] = system: WAT; set-up: method as in earlier work; conditions: intranasal administration; ref [50] Wellhöner et al.; cited from earlier work
Text: However, it should be taken into account, that there may be downstream MCR mechanisms of propranolol that are unknown, which is a precaution using this antagonist. Depleting the explants with reserpine before stimulation could add additional confidence to the ...

[10] = system: MC3R; conditions: antagonist; ref [47]; cited from earlier work
[11] = system: MC5R; conditions: agonist; ref [47]; cited from earlier work
[12] = molecular target: T1, hMC1R (Homo sapiens, UniProt Q01726); assay: Competition binding of 125I-NDP-α-MSH to membranes of BHK570 cells expressing hMC1R; conditions: competition with fixed 125I-NDP-α-MSH, test compound 1 pM–10 μM, filtration, average of repeated independent experiments ± SEM, n = 3 (α-MSH n = 18)
T1 construct: expressed in transfected cells
Method: as §3, §4

[13] = system: adipocytes or intact human adipose tissue; conditions: own finding "supported by other studies", ref [51], [52]; cited from earlier work
Text: (§7) ACTH is a larger peptide than both α-MSH and the synthetic melanocortin compounds used in this study.

[14] = system: adipocytes isolated from subcutaneous adipose tissue; conditions: adipocytes isolated from subcutaneous adipose tissue of non-diabetic human; ref [53] Xue et al.; cited from earlier work
Text: as §7

[15] = system: primary mouse adipocytes; conditions: mediated by MC2R and MC5R, ref [35], [37], [38]; cited from earlier work
Text: as §6

[16] = system: rabbit adipocytes; conditions: ref [39] Richter et al.; cited from earlier work
Text: MC5R is extensively distributed in the periphery, and is reported to regulate sebaceous gland secretion and fatty acid oxidation in skeletal muscle. The melanocortin system has a well-established lipolytic effect in rodent adipose tissues. Studies in murine primary adipocytes and differentiated 3T3-L1 adipocytes show a direct lipolytic effect of MC2R and MC5R when stimulated by various endogenous and synthetic melanocortin agonists.

[17] = system: human white adipose tissue (WAT) explants; assay: NEFA release in human WAT explants ± propranolol; assay type: cell-based
Method: as §5, §1, §2

T1 sequence (Q01726 whole entry): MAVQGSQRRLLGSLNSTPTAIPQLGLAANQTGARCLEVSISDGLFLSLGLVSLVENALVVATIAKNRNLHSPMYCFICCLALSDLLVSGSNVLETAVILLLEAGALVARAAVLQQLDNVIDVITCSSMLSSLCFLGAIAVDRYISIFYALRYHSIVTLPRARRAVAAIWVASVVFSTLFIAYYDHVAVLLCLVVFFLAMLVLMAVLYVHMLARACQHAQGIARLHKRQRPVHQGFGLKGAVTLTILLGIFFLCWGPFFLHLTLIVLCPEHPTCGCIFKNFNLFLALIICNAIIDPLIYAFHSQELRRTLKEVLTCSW

CC(=O)N[C@H](CCCNC(=N)N)C(=O)N[C@H]1CSSC[C@@H](C(N)=O)NC(=O)[C@H](Cc2c[nH]c3ccccc23)NC(=O)[C@H](CCCNC(=N)N)NC(=O)[C@@H](Cc2ccccc2)NC(=O)[C@H](Cc2c[nH]cn2)NC(=O)[C@H](CCC(=O)O)NC1=O [LY2112688]
stimulation of NEFA release (in words) [1]: failed to stimulate NEFA release | binding rank order [2]: MC4R > MC3R > MC1R | increased affinity for MC4R over MC1R [3]: more than 30 | increased affinity for MC4R over MC3R [4]: more than 100 | stimulation of glycerol release (in words) [5]: stimulated release of glycerol | increase in NEFA release compared to vehicle [6]: 46% | Emax of lipolysis compared to isoproterenol (in words) [6]: relatively lower Emax | stimulation of NEFA release / lipolysis (in words) [6]: significantly stimulated lipolysis; also recorded: stimulated a low, though significant, release of NEFA; also recorded: significantly stimulate release of NEFA

NDP-α-MSH
cAMP response (in words) [7]: weak cAMP response | effect on lipolysis (in words) [8]: did not find an effect on lipolysis

MSH/ACTH(4-10): intranasally administered melanocortin fragment in Wellhöner et al. (MEHFRWG; Corticotropin; UniProt P01189 141-147, looked up, fragment)
glycerol concentrations in WAT (in words) [9]: increased glycerol concentrations in WAT

CC(C)NCC(O)c1ccc(O)c(O)c1 (stereo not drawn) [isoproterenol]
stimulation of NEFA release (in words) [1]: potent release of NEFA | increase in NEFA release compared to vehicle [6]: 114% | stimulation of NEFA release / lipolysis (in words) [6]: potent release of NEFA

CCCC[C@H](NC(C)=O)C(=O)N[C@H]1CC(=O)NCCCC[C@@H](C(N)=O)NC(=O)[C@H](Cc2c[nH]c3ccccc23)NC(=O)[C@H](CCCNC(=N)N)NC(=O)[C@@H](Cc2ccc3ccccc3c2)NC(=O)[C@@H]2CCCN2C1=O [PG-901]
binding to MC3R (in words) [10]: high affinity | stimulation of NEFA release (in words) [1]: failed to stimulate NEFA release | binding to MC5R (in words) [11]: high affinity | Ki [12]: 2700 ± 153 nM | stimulation of glycerol release (in words) [5]: stimulated release of glycerol | increase in NEFA release compared to vehicle [6]: 38% | Emax of lipolysis compared to isoproterenol (in words) [6]: relatively lower Emax | stimulation of NEFA release / lipolysis (in words) [6]: significantly stimulated lipolysis; also recorded: stimulated a low, though significant, release of NEFA; also recorded: significantly stimulate release of NEFA

SYSMEHFRWGKPVGKKRRPVKVYPNGAEDESAEAFPLEF [ACTH]
lipolytic capacity (in words) ([1]; adipocytes): no lipolytic capacity | stimulation of NEFA release (in words) [1]: failed to stimulate NEFA release | binding rank order [2]: MC1R > MC4R > MC3R > MC5R | lipolytic capacity (in words) [13]: no lipolytic capacity | stimulation of lipolysis (in words) [14]: stimulated lipolysis | stimulation of glycerol release (in words) [5]: failed to stimulate NEFA and glycerol release | lipolytic capacity (in words) ([6]; intact human adipose tissue): no lipolytic capacity | stimulation of NEFA release / lipolysis (in words) [6]: failed to stimulate NEFA | lipolytic capacity (in words) [15]: lipolytic capacity | effect on lipolysis (in words) [16]: direct effect

CC(C)NCC(O)COc1cccc2ccccc12 (stereo not drawn) [propranolol]
decrease of LY2112688-stimulated NEFA release (in words) ([17]; 10 μM propranolol + LY2112688 (100 nM–10 μM), female human subcutaneous explants, 3 independent experiments in triplicate wells): did not significantly decrease the release of NEFA | decrease of PG-901-stimulated NEFA release (in words) ([17]; 10 μM propranolol + PG-901 (100 nM–10 μM), female human subcutaneous explants, 3 independent experiments in triplicate wells): significantly decreased the release of NEFA | decrease of isoproterenol-stimulated NEFA release (in words) ([17]; 10 μM propranolol + isoproterenol, female human subcutaneous explants, 3 independent experiments in triplicate wells): significantly decreased the release of NEFA | inhibition of NEFA release on co-incubation (in words) ([17]; propranolol co-incubation, MC4R/MC5R-mediated lipolysis, overview figure): inhibits NEFA release
